# Test results as given in patent publication US8163737B2 (Vertex Pharmaceuticals Incorporated, priority 2006, dated 2012).
# Tests used:
# [1] = target: T1, CGRP receptor (SK-N-MC membrane) (Homo sapiens, UniProt O60894+Q16602); test: I125-CGRP binding displacement assay on purified SK-N-MC membrane
# T1 construct: Purified SK-N-MC membrane was purchased from Perkin Elmer; purchased Perkin Elmer; host or cells: SK-N-MC membrane
# Description: Purified SK-N-MC membrane was purchased from Perkin Elmer. The membrane was thawed quickly and placed on ice. The compounds were diluted with CGRP binding solution (25 mM Tris-HCl, pH7.4, 5 mM MgCl2, 0.1% BSA and 0.05% Tween). The membrane was diluted 1:20 with the binding solution and homogenized with Tissue Matster-50 Homogenizer (Omni International) for 30 sec. The homogenized membrane was added to compounds in the binding solution. […] After 2 hour incubation at room temperature, the reaction was stopped by rapid filtration through 0.5% PEI treated GF/C filter plate (Perkin Elmer) and the filter plate was washed with ice-cold washing solution (50 mM Tris HCl, pH7.4, 5 mM MgCl2 and 0.1% BSA) using cell harvestor (Tomtec). The radioactivity of the filter plates were read on Topcount (Packard). The nonspecific binding was determined in the control reaction where 1 uM unlabelled CGRP was preincubated with the membrane prior to I125-CGRP addition. The total binding was determined in the control reaction of the membrane and I125-CGRP in the absence of compound. The percent displacement of I125-CGRP with compounds was calculated using nonspecific and total binding controls. The curve fitting was carried out using MOD3.
# endogenous CGRP receptor = endogenous CGRP receptor (Homo sapiens, UniProt O60894+Q16602); test: CGRP functional antagonism using SK-N-MC-BLA (4C10), β-lactamase transcriptional reporter assay; assay type: cell-based; conditions: SK-N-MC (4C10) cells, inhibition of β-lactamase expression in the presence of 200 pM CGRP
# Chain of endogenous CGRP receptor (Q16602 23-461): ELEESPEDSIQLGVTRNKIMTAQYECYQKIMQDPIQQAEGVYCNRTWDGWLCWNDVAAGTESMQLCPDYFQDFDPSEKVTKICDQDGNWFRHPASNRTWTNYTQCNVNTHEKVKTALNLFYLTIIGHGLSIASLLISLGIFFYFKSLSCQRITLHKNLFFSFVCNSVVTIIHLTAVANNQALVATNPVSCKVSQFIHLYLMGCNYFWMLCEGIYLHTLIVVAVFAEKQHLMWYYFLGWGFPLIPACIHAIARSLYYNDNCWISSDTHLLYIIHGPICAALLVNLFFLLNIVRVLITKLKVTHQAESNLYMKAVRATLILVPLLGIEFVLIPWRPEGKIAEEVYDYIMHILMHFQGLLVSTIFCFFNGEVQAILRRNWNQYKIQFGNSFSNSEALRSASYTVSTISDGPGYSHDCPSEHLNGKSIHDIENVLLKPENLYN
# Chain of endogenous CGRP receptor (O60894 27-148): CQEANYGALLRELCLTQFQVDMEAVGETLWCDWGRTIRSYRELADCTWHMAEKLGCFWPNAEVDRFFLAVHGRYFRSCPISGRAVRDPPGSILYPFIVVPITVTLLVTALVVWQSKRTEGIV
# T1 sequence (Q16602 23-461): as the sequence (Q16602 23-461) above
# T1 sequence (O60894 27-148): as the sequence (O60894 27-148) above
Ki [1],IC50 (endogenous CGRP receptor),SMILES
< 1000 nM,> 5000 nM,CC(C)(C)CCN1C(=O)[C@H](CC(=O)N2CCC(N3CCc4ccccc4NC3=O)CC2)SC1c1ccccc1C1CCN(C(=O)OC(C)(C)C)CC1 (mixture of isomers) [Compound 500]
< 1000 nM,< 1000 nM,"CC(C)(C)CCN1C(=O)C(CC(=O)N2CCC(N3CCc4ccccc4NC3=O)CC2)SC1c1cccc(F)c1NCCN1CCOCC1 (stereo in doubt) [Compound 506, 3-(1-(2-((5S)-2-(2-(2-Morpholinoethylamino)-3-fluorophenyl)-3-(3,3-dimethylbutyl)-4-oxothiazolidin-5-yl)acetyl)piperidin-4-yl)-4,5-dihydro-1H-benzo[d][1,3]diazepin-2(3H)-one]"
< 1000 nM,< 1000 nM,"CC(C)(C)CCN1C(=O)C(CC(=O)N2CCC(n3c(=O)[nH]c4ncccc43)CC2)SC1c1cccc(F)c1NCCN1CCOCC1 (stereo in doubt) [Compound 517, 1-(1-(2-((5S)-2-(2-(2-Morpholinoethylamino)-3-fluorophenyl)-3-(3,3-dimethylbutyl)-4-oxothiazolidin-5-yl)acetyl)piperidin-4-yl)-1H-imidazo[4,5-b]pyridin-2(3H)-one]"
< 1000 nM,< 1000 nM,O=C(CC1SC(c2ccccc2)N(C2CCCCC2)C1=O)N1CCC(N2Cc3ccccc3NC2=O)CC1 (stereo not drawn) [Compound 1]
< 1000 nM,< 1000 nM,Cc1cc(C2SC(CC(=O)N3CCC(N4CCc5ccccc5NC4=O)CC3)C(=O)N2CCC(C)(C)C)cc2cn[nH]c12 (stereo not drawn) [Compound 3]
< 1000 nM,< 1000 nM,CC(C)(C)CCN1C(=O)C(CC(=O)N2CCC(N3CCc4ccccc4NC3=O)CC2)SC1c1ccccc1 (stereo not drawn) [Compound 8]
< 1000 nM,< 1000 nM,CC(C)CN1C(=O)C(CC(=O)N2CCC(N3Cc4ccccc4NC3=O)CC2)SC1c1ccccc1 (stereo not drawn) [Compound 9]
< 1000 nM,< 1000 nM,CC(C)CCN1C(=O)C(CC(=O)N2CCC(N3CCc4ccccc4NC3=O)CC2)SC1c1ccccc1N1CCOCC1 (stereo not drawn) [Compound 10]
< 1000 nM,< 1000 nM,CC(C)CCN1C(=O)C(CC(=O)N2CCC(N3Cc4ccccc4NC3=O)CC2)SC1c1ccccc1 (stereo not drawn) [Compound 12]
< 1000 nM,< 1000 nM,CC(C)CCN1C(=O)C(CC(=O)N2CCC(N3Cc4ccccc4NC3=O)CC2)SC12c1ccccc1-c1ccccc12 (stereo not drawn) [Compound 14]
< 1000 nM,< 1000 nM,CC(C)(C)CCN1C(=O)C(CC(=O)N2CCC(N3CCc4ccccc4NC3=O)CC2)SC12CCSCC2 (stereo not drawn) [Compound 15]
< 1000 nM,< 1000 nM,O=C(CC1SC(c2c(F)cccc2F)N(CC2CCCCC2)C1=O)N1CCC(N2CCc3ccccc3NC2=O)CC1 (stereo not drawn) [Compound 16]
> 5000 nM,> 5000 nM,COc1ccc(C2SC(CC(=O)N3CCC(n4cc(-c5ccccc5)[nH]c4=O)CC3)C(=O)N2CCC(C)C)cc1OC (stereo not drawn) [Compound 19]
< 1000 nM,< 1000 nM,Cc1cc(C2SC(CC(=O)N3CCC(N4CCc5ccccc5NC4=O)CC3)C(=O)N2CC2CCCCC2)cc2cn[nH]c12 (stereo not drawn) [Compound 20]
< 1000 nM,< 1000 nM,CC(C)(C)CCN1C(=O)C(CC(=O)N2CCC(N3CCc4ccccc4NC3=O)CC2)SC1c1ccccc1-n1ccnc1 (stereo not drawn) [Compound 28]
< 1000 nM,1000 to 5000 nM,COCCN1C(=O)C(CC(=O)N2CCC(N3Cc4ccccc4NC3=O)CC2)SC1c1ccccc1 (stereo not drawn) [Compound 30]
< 1000 nM,< 1000 nM,CC(C)CCN1C(=O)C(CC(=O)N2CCC(N3Cc4ccccc4NC3=O)CC2)SC1c1cccc(Cl)c1 (stereo not drawn) [Compound 33]
< 1000 nM,< 1000 nM,CC(C)CCN1C(=O)C(CC(=O)N2CCC(N3CCc4ccccc4NC3=O)CC2)SC1C1CCCCC1 (stereo not drawn) [Compound 37]
< 1000 nM,< 1000 nM,Cc1cccc(C2SC(CC(=O)N3CCC(N4Cc5ccccc5NC4=O)CC3)C(=O)N2CCC(C)C)c1 (stereo not drawn) [Compound 41]
< 1000 nM,1000 to 5000 nM,CC(C)CC1SC(CC(=O)N2CCC(N3Cc4ccccc4NC3=O)CC2)C(=O)N1CCc1ccncc1 (stereo not drawn) [Compound 43]
< 1000 nM,< 1000 nM,CC(C)CCN1C(=O)C(CC(=O)N2CCC(N3CCc4ccccc4NC3=O)CC2)SC1c1ccc(F)cc1F (stereo not drawn) [Compound 44]
< 1000 nM,< 1000 nM,CC(C)(C)CCN1C(=O)C(CC(=O)N2CCC(N3CCc4ccccc4NC3=O)CC2)SC1c1cccc(F)c1F (stereo not drawn) [Compound 48]
< 1000 nM,< 1000 nM,CC(C)(C)CCN1C(=O)C(CC(=O)N2CCC(N3Cc4ccccc4NC3=O)CC2)SC1c1ccccc1N1CCC(O)CC1 (stereo not drawn) [Compound 49]
> 5000 nM,> 5000 nM,O=C(CC1SC(c2ccccc2)N(CCc2ccncc2)C1=O)N1CCC(n2cc(-c3ccccc3)[nH]c2=O)CC1 (stereo not drawn) [Compound 53]
< 1000 nM,< 1000 nM,CC(C)(C)CCN1C(=O)C(CC(=O)N2CCC(N3CCc4ccccc4NC3=O)CC2)SC1c1ccc(F)cc1F (stereo not drawn) [Compound 54]

Ki [1],IC50 (endogenous CGRP receptor),SMILES
< 1000 nM,< 1000 nM,O=C(CC1SC(c2ccccc2)N(CCc2ccccc2)C1=O)N1CCC(N2Cc3ccccc3NC2=O)CC1 (stereo not drawn) [Compound 58]
< 1000 nM,< 1000 nM,CC(C)(C)CCN1C(=O)C(CC(=O)N2CCC(N3Cc4ccccc4NC3=O)CC2)SC1c1ccccc1-n1ccnc1 (stereo not drawn) [Compound 60]
> 5000 nM,1000 to 5000 nM,COc1cccc(C2SC(CC(=O)N3CCC(n4cc(-c5ccccc5)[nH]c4=O)CC3)C(=O)N2CCC(C)C)c1 (stereo not drawn) [Compound 61]
< 1000 nM,< 1000 nM,CC(C)CCN1C(=O)C(CC(=O)N2CCC(N3Cc4ccccc4NC3=O)CC2)SC1c1ccc(C#N)cc1 (stereo not drawn) [Compound 63]
< 1000 nM,1000 to 5000 nM,COc1ccccc1C1SC(CC(=O)N2CCC(n3cc(-c4ccccc4)[nH]c3=O)CC2)C(=O)N1CCC(C)C (stereo not drawn) [Compound 64]
< 1000 nM,< 1000 nM,CC(C)CCN1C(=O)C(CC(=O)N2CCC(N3Cc4ccccc4NC3=O)CC2)[S+]([O-])C1c1ccc(F)cc1F (stereo not drawn) [Compound 66]
< 1000 nM,< 1000 nM,CC(C)CCN1C(=O)C(CC(=O)N2CCC(N3Cc4ccccc4NC3=O)CC2)SC1c1cccc(F)c1 (stereo not drawn) [Compound 67]
< 1000 nM,< 1000 nM,CC(C)(C)CCN1C(=O)C(CC(=O)N2CCC(N3CCc4ccccc4NC3=O)CC2)SC1c1ccccc1N1CCOCC1 (stereo not drawn) [Compound 70]
< 1000 nM,< 1000 nM,CC(C)CCN1C(=O)C(CC(=O)N2CCC(N3Cc4ccccc4NC3=O)CC2)SC1c1c(Cl)cccc1Cl (stereo not drawn) [Compound 76]
< 1000 nM,< 1000 nM,CC(C)CCN1C(=O)C(CC(=O)N2CCC(N3CCc4ccccc4NC3=O)CC2)SC1c1ccccc1 (stereo not drawn) [Compound 78]
< 1000 nM,< 1000 nM,CC(C)CCN1C(=O)C(CC(=O)N2CCC(N3CCc4ccccc4NC3=O)CC2)SC1c1ccc(F)cc1Cl (stereo not drawn) [Compound 79]
< 1000 nM,< 1000 nM,COc1ccccc1C1SC(CC(=O)N2CCC(N3Cc4ccccc4NC3=O)CC2)C(=O)N1CCC(C)C (stereo not drawn) [Compound 80]
< 1000 nM,< 1000 nM,CC(C)CCN1C(=O)C(CC(=O)N2CCC(N3Cc4ccccc4NC3=O)CC2)SC12CCSCC2 (stereo not drawn) [Compound 84]
1000 to 5000 nM,1000 to 5000 nM,CC(C)CCN1C(=O)C(CC(=O)N2CCC(n3cc(-c4ccccc4)[nH]c3=O)CC2)SC1C1CCCC1 (stereo not drawn) [Compound 87]
< 1000 nM,< 1000 nM,CC(C)(C)CCN1C(=O)C(CC(=O)N2CCC(N3CCc4ccccc4NC3=O)CC2)SC1c1ccccc1-n1cccn1 (stereo not drawn) [Compound 88]
< 1000 nM,< 1000 nM,CC(C)(C)CCN1C(=O)C(CC(=O)N2CCC(N3Cc4ccccc4NC3=O)CC2)SC1c1ccccc1 (stereo not drawn) [Compound 93]
> 5000 nM,> 5000 nM,CC(C)CCN1C(=O)C(CC(=O)N2CCC(n3c(=O)[nH]c4ccccc43)CC2)SC1c1ccccc1 (stereo not drawn) [Compound 104]
> 5000 nM,> 5000 nM,CN1CCN(c2ccccc2[C@@H]2SC(CC(=O)N3CCCCC3)C(=O)N2CCC(C)(C)C)CC1 (stereo partly drawn) [Compound 105]
< 1000 nM,< 1000 nM,CCCCN1C(=O)C(CC(=O)N2CCC(N3Cc4ccccc4NC3=O)CC2)SC1c1ccccc1 (stereo not drawn) [Compound 107]
< 1000 nM,1000 to 5000 nM,O=C(CC1SC(c2ccccc2)N(CC(F)(F)F)C1=O)N1CCC(N2Cc3ccccc3NC2=O)CC1 (stereo not drawn) [Compound 109]
> 5000 nM,> 5000 nM,CC(C)CCN1C(=O)C(CC(=O)N2CCC(n3cc(-c4ccccc4)[nH]c3=O)CC2)SC1c1ccccc1 (stereo not drawn) [Compound 110]
< 1000 nM,–,CC(C)CCN1C(=O)C(CC(=O)N2CCC(n3c(=O)[nH]c4ccccc43)CC2)S[C@H]1c1ccccc1N1CCC(O)CC1 (stereo partly drawn) [Compound 304]
< 1000 nM,–,CN(C)[C@H]1CCN(c2ccccc2C2SC(CC(=O)N3CCC(n4c(=O)[nH]c5ncccc54)CC3)C(=O)N2CCC(C)(C)C)C1 (stereo partly drawn) [Compound 406]
< 1000 nM,–,CC(C)(C)CCN1C(=O)[C@H](CC(=O)N2CCC(N3CCc4ccccc4NC3=O)CC2)SC1c1cccc(F)c1N1CCC(c2ccncc2)CC1 (stereo partly drawn) [Compound 557]
< 1000 nM,–,CC(C)(C)CCN1C(=O)[C@H](CC(=O)N2CCC(N3CCc4ccccc4NC3=O)CC2)SC1c1cccc(F)c1C1CCN(C2CCC2)CC1 (stereo partly drawn) [Compound 558]
